Experimental findings from patent publication US7030110B2, “Cyclic oxyguanidine pyrazinones as protease inhibitors” (Ortho-McNeil Pharmaceuticals, Inc., priority 2000, dated 2006) are described below.

Structures are written as SMILES. Where a name gives a salt, the structure may show the parent alone.

In the assay the target is T1, human α-thrombin (Homo sapiens, UniProt P00734).
T1 construct: Human α-thrombin, human factor Xa and human plasmin were obtained from Enzyme Research Laboratories; purchased Enzyme Research Laboratories (South Bend, Indiana)
Description: In vitro inhibition of purified thrombin, Ki determination (p-nitroanilide substrate hydrolysis). The class given is biochemical. The settings on record: purified human α-thrombin 0.5 nM; substrate N-succinyl-Ala-Ala-Pro-Arg-p-nitroanilide; 50 mM HEPES, 200 mM NaCl, pH 7.5; 37° C. From the text: Reagents: All buffer salts were obtained from Sigma Chemical Company (St. Louis, Mo.), and were of the highest purity available. The enzyme substrates, N-benzoyl-Phe-Val-Arg-p-nitroanilide (Sigma B7632), N-benzoyl-Ile-Glu-Gly-Arg-p-nitroanilide hydrochloride (Sigma B2291), N-p-Tosyl-Gly-Pro-Lys-p-nitroanilide (Sigma T6140), N-succinyl-Ala-Ala-Pro-Phe-p-nitroanilide (Sigma S7388) and N-CBZ-Val-Gly-Arg-p-nitroanilide (Sigma C7271) were obtained from Sigma. N-succinyl-Ala-Ala-Pro-Arg-p-nitroanilide (BACHEM L-1720) and N-succinyl-Ala-Ala-Pro-Val-p-nitroanilide (BACHEM L-1770) were obtained from BACHEM (King of Prussia, Pa.). […]
Ki Determinations: All assays are based on the ability of the test compound to inhibit the enzyme catalyzed hydrolysis of a peptide p-nitroanilide substrate. […] In general, substrate concentrations are lower than the experimentally determined value for Km. […]
In a typical K1 determination, into each well of a 96 well plate is pipetted […] of substrate solution, […] of test compound solution, and the plate allowed to thermally equilibrate at 37° C. in a Molecular Devices plate reader for >15 minutes. Reactions were initiated by the addition of a […] aliquot of enzyme and the absorbance increase at 405 nm is recorded for 15 minutes. […] The data are fit to a linear regression, and the value of the slope of the line calculated. […]

On to `Cc1cnc(NCC(F)(F)c2ccccc2)c(=O)n1CC(=O)NCC1CNC(=N)NO1` (centres unmarked) [Example 2, 2-[3-(2,2-Difluoro-2-phenylethylamino)-6-methyl-2-oxo-2H-pyrazin-1-yl]-N-(3-imino-[1,2,4]oxadiazinan-6-ylmethyl)-acetamide Trifluoroacetate], for which the Ki was 5 nM.
Take `Cc1ccc(CCNc2ncc(C)n(CC(=O)NC3CCN(C(=N)N)OC3)c2=O)cc1` (centres unmarked) [Example 1, N-(2-Carbamimidoyl-[1,2]oxazinan-5-yl)-2-[6-methyl-2-oxo-3-(2-p-tolylethylamino)-2H-pyrazin-1-yl]-acetamide trifluoroacetate]: the Ki is 0.6 to 1.3 nM.
